Experiment: Solubility under substantially physiological conditions
Assay type: physicochemical
Settings: pH 5 to 7

- Solubility: insoluble or slightly soluble
Compound: NS(=O)(=O)c1ccc(S(=O)(=O)Nc2cccc3c(Cl)c[nH]c23)cc1 [N-(3-chloro-7-indolyl)-1,4-benzenedisulfonamide]

From US20060151899A1, “Process for producing drug ultramicroparticle and apparatus therefor” (priority 2004, published 2006)
